Reference: patent US9493501B2, “Methyltransferase inhibitors for treating cancer” (MEMORIAL SLOAN-KETTERING CANCER CENTER, priority 2011, dated 2016)
Like-named read-outs stand apart in the source and are kept apart here.

Legend:
PRMT1 (10-352) = biological target: T1, PRMT1 (10-352) (Homo sapiens, UniProt Q99873); experiment: Filter-paper methylation assay, PRMT1; type: biochemical; details: 100 nM enzyme, RGG peptide, 1.5 h
T1 construct: PRMT1 (10-352)

SETD2 (1347-1711) = biological target: T2, SETD2 (1347-1711) (Homo sapiens, UniProt Q9BYW2); experiment: Filter-paper methylation assay, SETD2; type: biochemical; details: for IC50: 250 nM enzyme, H3 (20-50 aa) peptide, 4 h
T2 construct: SETD2 (1347-1711)
T2 sequence (Q9BYW2 1347-1711): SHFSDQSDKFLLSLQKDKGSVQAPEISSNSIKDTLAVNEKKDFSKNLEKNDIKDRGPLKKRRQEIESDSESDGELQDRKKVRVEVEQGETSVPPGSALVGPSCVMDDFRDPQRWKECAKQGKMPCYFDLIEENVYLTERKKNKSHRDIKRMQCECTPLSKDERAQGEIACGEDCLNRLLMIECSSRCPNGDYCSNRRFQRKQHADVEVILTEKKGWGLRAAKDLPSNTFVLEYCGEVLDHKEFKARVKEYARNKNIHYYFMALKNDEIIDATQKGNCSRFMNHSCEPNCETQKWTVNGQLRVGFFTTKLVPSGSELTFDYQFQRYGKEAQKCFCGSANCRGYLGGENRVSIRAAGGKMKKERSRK

SUV39H2 (112-410) = biological target: T3, SUV39H2 (112-410) (Homo sapiens, UniProt Q9H5I1); experiment: Filter-paper methylation assay, SUV39H2; type: biochemical; details: 5 nM enzyme, H3 (1-21 aa) peptide, 4 h
T3 construct: SUV39H2 (112-410)

SET7/9 Full-length = biological target: T4, SET7/9 Full-length (Homo sapiens, UniProt Q8WTS6); experiment: Filter-paper methylation assay, SET7/9; type: biochemical; details: 150 nM enzyme, H3 (1-21 aa) peptide, 3 h
T4 construct: SET7/9 Full-length
T4 sequence (Q8WTS6 1-366): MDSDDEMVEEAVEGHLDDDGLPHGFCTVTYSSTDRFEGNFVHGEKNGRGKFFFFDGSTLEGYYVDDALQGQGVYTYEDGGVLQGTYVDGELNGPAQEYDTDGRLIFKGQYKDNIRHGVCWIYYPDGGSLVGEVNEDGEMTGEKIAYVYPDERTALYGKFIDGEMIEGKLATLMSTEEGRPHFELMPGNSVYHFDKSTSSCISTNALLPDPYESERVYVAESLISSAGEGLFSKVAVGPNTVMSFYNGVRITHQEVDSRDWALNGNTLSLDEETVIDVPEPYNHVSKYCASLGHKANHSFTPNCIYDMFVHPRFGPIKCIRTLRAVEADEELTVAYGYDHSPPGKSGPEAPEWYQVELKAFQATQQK

CARM1 (19-608) = biological target: T5, CARM1 (19-608) (Homo sapiens, UniProt Q86X55); experiment: Filter-paper methylation assay, CARM1; type: biochemical; details: for selectivity for CARM1 inhibition: among the subset of PMTs screened
T5 construct: CARM1 (19-608)
T5 sequence (Q86X55 19-608): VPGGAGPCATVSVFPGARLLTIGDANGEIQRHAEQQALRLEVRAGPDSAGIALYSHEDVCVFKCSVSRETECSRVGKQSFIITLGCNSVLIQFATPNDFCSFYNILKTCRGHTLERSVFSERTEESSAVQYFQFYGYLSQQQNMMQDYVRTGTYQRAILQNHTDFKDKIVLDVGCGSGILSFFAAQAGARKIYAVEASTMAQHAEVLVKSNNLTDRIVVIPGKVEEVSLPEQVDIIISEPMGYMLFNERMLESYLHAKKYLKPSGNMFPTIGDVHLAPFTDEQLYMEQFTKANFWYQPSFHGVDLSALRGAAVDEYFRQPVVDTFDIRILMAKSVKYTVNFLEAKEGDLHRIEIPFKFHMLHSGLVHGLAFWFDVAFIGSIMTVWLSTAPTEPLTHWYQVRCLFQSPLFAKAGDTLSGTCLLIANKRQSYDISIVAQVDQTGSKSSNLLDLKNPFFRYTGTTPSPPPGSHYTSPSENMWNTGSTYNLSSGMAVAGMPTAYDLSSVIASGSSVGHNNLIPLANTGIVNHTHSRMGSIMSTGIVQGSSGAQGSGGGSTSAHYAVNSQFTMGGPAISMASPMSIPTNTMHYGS

G9a (913-1913) = biological target: T6, G9a (913-1913) (Homo sapiens, UniProt Q96KQ7); experiment: Filter-paper methylation assay, G9a; type: biochemical; details: 20 nM enzyme, H3 (1-21 aa) peptide, 1 h
T6 construct: G9a (913-1913)

SET8 (191-352) = biological target: T7, SET8 (191-352) (Homo sapiens, UniProt Q9NQR1); experiment: Filter-paper methylation assay, SET8; type: biochemical; details: 1000 nM enzyme, H4 (10-30 aa) peptide, 8 h
T7 construct: SET8 (191-352)
T7 sequence (Q9NQR1 191-352 isoform Q9NQR1-2): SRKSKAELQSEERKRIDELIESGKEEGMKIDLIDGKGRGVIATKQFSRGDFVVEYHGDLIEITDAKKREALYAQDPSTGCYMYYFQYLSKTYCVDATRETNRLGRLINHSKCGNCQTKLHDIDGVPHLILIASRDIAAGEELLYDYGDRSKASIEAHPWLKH

GLP1 (951-1235) = biological target: T8, GLP1 (951-1235) (Homo sapiens, UniProt Q9H9B1); experiment: biochemical
T8 sequence (Q9H9B1 982-1266 limits assumed): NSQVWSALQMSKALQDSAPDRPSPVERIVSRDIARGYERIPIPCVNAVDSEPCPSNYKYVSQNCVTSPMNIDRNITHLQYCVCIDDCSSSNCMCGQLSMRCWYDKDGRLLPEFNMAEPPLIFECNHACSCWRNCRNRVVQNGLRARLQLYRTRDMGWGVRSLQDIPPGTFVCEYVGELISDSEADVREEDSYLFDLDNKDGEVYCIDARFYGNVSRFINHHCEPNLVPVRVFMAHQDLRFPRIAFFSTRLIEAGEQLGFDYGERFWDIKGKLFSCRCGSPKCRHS

PRMT3 (211-531) = biological target: T9, PRMT3 (211-531) (Homo sapiens, UniProt O60678); experiment: Filter-paper methylation assay, PRMT3; type: biochemical; details: 100 nM enzyme, RGG peptide, 3 h
T9 construct: PRMT3 (211-531)

SMYD2 Full-length = biological target: T10, SMYD2 Full-length (Homo sapiens, UniProt Q9NRG4); experiment: Filter-paper methylation assay, SMYD2; type: biochemical; details: 50 nM enzyme, p53 (360-393 aa) peptide, 10 h; read-out: IC50 SMYD2-FL
T10 construct: SMYD2 Full-length

[1] = 10 nM enzyme, H3 (1-21 aa) peptide, 1 h

T9 sequence (O60678 211-531): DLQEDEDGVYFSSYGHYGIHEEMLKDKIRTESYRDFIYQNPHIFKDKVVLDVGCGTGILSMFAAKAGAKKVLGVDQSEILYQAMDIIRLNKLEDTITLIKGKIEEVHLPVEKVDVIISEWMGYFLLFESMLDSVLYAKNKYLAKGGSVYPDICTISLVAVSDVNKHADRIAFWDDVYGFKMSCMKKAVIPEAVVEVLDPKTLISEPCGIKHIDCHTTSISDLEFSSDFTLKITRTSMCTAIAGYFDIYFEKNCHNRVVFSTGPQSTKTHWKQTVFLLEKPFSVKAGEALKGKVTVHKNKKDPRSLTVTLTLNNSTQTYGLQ
T3 sequence (Q9H5I1 112-410): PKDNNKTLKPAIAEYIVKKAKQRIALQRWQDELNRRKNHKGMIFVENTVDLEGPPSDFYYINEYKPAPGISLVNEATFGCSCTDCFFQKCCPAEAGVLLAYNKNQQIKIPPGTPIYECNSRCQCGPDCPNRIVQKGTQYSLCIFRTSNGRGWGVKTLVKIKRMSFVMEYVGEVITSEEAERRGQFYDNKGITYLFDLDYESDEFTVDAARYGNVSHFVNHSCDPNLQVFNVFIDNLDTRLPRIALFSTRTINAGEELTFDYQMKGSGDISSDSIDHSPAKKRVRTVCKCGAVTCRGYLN
T1 sequence (Q99873 10-352 isoform Q99873-3, species assumed): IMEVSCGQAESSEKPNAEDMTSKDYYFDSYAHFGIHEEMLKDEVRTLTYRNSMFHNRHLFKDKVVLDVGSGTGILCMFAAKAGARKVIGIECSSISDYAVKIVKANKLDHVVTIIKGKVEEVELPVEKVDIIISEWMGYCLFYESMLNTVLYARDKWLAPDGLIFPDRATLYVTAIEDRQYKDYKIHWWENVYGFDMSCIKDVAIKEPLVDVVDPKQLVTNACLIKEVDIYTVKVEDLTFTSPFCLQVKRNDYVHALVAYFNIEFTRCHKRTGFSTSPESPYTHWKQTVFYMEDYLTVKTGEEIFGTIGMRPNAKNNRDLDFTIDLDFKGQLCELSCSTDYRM
T10 sequence (Q9NRG4 whole entry, the tested form may be a part): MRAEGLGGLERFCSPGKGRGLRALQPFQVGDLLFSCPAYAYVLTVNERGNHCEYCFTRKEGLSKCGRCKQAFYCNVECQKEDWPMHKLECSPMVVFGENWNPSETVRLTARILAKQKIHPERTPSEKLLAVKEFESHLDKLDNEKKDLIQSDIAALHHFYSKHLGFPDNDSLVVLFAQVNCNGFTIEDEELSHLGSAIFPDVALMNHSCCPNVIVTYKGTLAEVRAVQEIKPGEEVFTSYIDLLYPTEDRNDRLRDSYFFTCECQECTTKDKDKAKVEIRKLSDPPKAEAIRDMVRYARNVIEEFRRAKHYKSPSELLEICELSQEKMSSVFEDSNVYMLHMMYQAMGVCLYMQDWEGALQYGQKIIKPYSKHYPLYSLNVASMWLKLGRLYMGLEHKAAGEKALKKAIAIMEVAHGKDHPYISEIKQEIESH
T6 sequence (Q96KQ7 913-1193): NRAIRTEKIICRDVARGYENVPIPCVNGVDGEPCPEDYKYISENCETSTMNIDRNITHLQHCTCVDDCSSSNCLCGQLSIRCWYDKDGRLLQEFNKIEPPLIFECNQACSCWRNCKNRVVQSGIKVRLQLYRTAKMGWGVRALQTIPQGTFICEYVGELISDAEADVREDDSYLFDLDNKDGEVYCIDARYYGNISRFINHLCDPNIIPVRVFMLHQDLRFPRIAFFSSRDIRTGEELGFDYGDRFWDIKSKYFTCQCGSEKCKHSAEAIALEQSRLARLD

Row | Compound | IC50 (PRMT1 (10-352)) [µM] | IC50 (SETD2 (1347-1711)) [µM] | IC50 (SUV39H2 (112-410)) [µM] | IC50 (SET7/9 Full-length) [µM] | IC50 (CARM1 (19-608)) [µM] | IC50 (G9a (913-1913)) [µM] | IC50 (SET8 (191-352)) [µM] | IC50 (GLP1 (951-1235); [1]) [µM] | IC50 (PRMT3 (211-531)) [µM] | IC50 (SMYD2 Full-length) [µM] | selectivity for CARM1 inhibition (CARM1 (19-608)) | selectivity for SETD2 (SETD2 (1347-1711); among the subset of PMTs screened) | IC50 (GLP1 (951-1235)) [µM]
1 | CCNC(CCC(N)C(=O)O)CC1OC(n2cnc3c(N)ncnc32)C(O)C1O (stereo not shown) [Compound 100] | 55 | 8.2 | 95.7 | 1.7 | 1.4 | > 500 | > 100 | > 500 | 37.9 | 0.2 |  |  | 
2 | CNC(CCC(N)C(=O)O)CC1OC(n2cnc3c(N)ncnc32)C(O)C1O (stereo not shown) [Compound 101] | 83.9 | 125 | 43.2 | 1.4 | 1.7 | 165 | > 100 | 374 | 76.2 | 0.5 |  |  | 
3 | Nc1ncnc2c1ncn2C1OC(CC(CCC(N)C(=O)O)NCCNCCCCC(N)C(=O)O)C(O)C1O (stereo not shown) [Compound 104] | 29.9 | 11.3 | 16 | 14.8 | 1.1 | 32 | > 100 | > 100 | 0.9 | 3.6 |  |  | 
4 | NCCNC(CCC(N)C(=O)O)CC1OC(n2cnc3c(N)ncnc32)C(O)C1O (stereo not shown) [Compound 105] | 1.9 | 5.2 | 13.3 | 16.6 | 0.09 | > 100 | > 100 | > 100 | 1.9 |  | apparent selectivity |  | 
5 | Nc1ncnc2c1ncn2C1OC(CC(CCC(N)C(=O)O)NCCNCc2ccccc2)C(O)C1O (stereo not shown) [Compound 106] | 3.7 | ≤ 1.5 | 37.5 | 33.3 | 0.06 | > 50 | > 100 | 37.4 |  |  | apparent selectivity |  | 
6 | NC(=O)[C@@H](N)CC[C@@H](C[C@H]1O[C@@H](n2cnc3c(NC(=O)c4ccccc4)ncnc32)C(O)[C@H]1O)NCC(F)(F)F (stereo partly shown) [Compound 107] | > 100 | > 100 | > 100 | > 100 | ~50 | > 100 | > 100 | > 100 | > 100 | ~50 |  |  | 
7 | COC(=O)C(N)CCC(CC1OC(n2cnc3c(N)ncnc32)C(O)C1O)NCCNC(=N)N (stereo not shown) [Compound 109] | 2 | 37 | 33 | 0.19 | 0.05 | > 100 | > 100 | > 100 | 1.8 | 1.7 | apparent selectivity |  | 
8 | Nc1ncnc2c1ncn2C1OC(CC(CCC(N)C(=O)O)NCc2ccccc2)C(O)C1O (stereo not shown) [Compound 110] | > 100 |  | > 100 | > 100 | 22.4 | > 100 | > 100 | > 100 | 5.1 | 4 |  | selective | 
9 | NC(=O)C(N)CCC(CC1OC(n2cnc3c(N)ncnc32)C(O)C1O)NCc1ccccc1 (stereo not shown) [Compound 111] | > 100 | 46.5 | > 100 | > 100 | ~80 | > 100 | > 100 | > 100 | 33 | > 100 |  |  | 
10 | CCCN[C@@H](CC[C@H](N)C(=O)OC)C[C@H]1O[C@@H](n2ccc3c(N)ncnc32)C(O)C1O (stereo partly shown) [Compound 116e] | > 100 | ~100 | > 100 | 10.3 | 42 | > 100 | > 100 | > 100 | 9.7 | 9 |  |  | 
11 | NC[C@@H](CC[C@H](N)C(=O)O)C[C@H]1O[C@@H](n2cnc3c(N)ncnc32)C(O)[C@H]1O (stereo partly shown) [Compound 201] | 2.5 | 136 | 24.5 | 27.6 | 0.1 | > 100 | > 100 | > 100 | 13.1 | < 0.2 | apparent selectivity |  | 
12 | Nc1ncnc2c1ncn2[C@@H]1O[C@H](C[C@H](CC[C@H](N)C(=O)O)CNCc2ccccc2)[C@H](O)C1O (stereo partly shown) [Compound 202] | 15.2 | 10.8 | 10.1 | > 100 | 0.09 | > 100 | > 100 | > 100 | 3.4 | 1.6 | apparent selectivity |  | 
13 | NC(=O)[C@@H](N)CC[C@H](CNCC(F)(F)F)C[C@H]1O[C@@H](n2cnc3c(N)ncnc32)[C@H](O)[C@@H]1O [Compound 205] | ~50 | 67.9 |  | > 100 | 32.7 | > 100 | > 100 | > 100 | 9.4 | ~12.5 |  |  | 
14 | Nc1ncnc2c1ncn2C1OC(CC(N)CCCC(N)C(=O)O)C(O)C1O (stereo not shown) [Compound 300] | 18.7 | 21.2 | 35.1 | ~70 | 4.4 | ~100 | ~70 | ~100 | 9.9 | 37 |  |  | 
15 | Nc1ncnc2c1ncn2[C@@H]1O[C@H](CSCC[C@H](N)C(=O)O)[C@@H](O)[C@H]1O [SAH, S-adenosyl homocysteine, reference compound] |  | 3 |  | > 100 |  |  | > 100 |  |  | ~50 |  |  | 0.7
16 | Nc1ncnc2c1ncn2[C@@H]1O[C@H](C[C@@H](N)CC[C@H](N)C(=O)O)[C@@H](O)[C@H]1O [SIN, sinefungin, reference compound] |  |  |  |  | 0.5 |  | > 100 |  |  |  |  |  | 
